Nine compounds from patent publication US20170044492A1, “CONVERSION OF SOMATIC CELLS INTO NOCICEPTORS, AND METHODS OF USE THEREOF” (CHILDERN'S MEDICAL CENTER CORPORATION, priority 2013, published 2017) can be followed below.

In assay [1] the test system is induced nociceptors. The class given is cell-based, mouse.
The subject of assay [2] is BAM-derived neurons. The class given is cell-based, mouse.
In assay [3] the test system is primary DRGs. It counts as cell-based, mouse.
Assay [4] addresses T1, TrpV1 receptor (Mus musculus, UniProt Q704Y3).
T1 construct: endogenous in cells; host or cells: tdTomato-positive induced nociceptors reprogrammed from TrpV1-Cre+/-::tdTomato+/- mouse embryonic fibroblasts
The assay can be described thus: PGE2 sensitization of the capsaicin response, calcium imaging of induced nociceptors. The class given is cell-based.

For assay [5], the system named is tdTomato-positive induced neurons. The assay can be described thus: Whole-cell patch clamp of induced nociceptors. It counts as cell-based, mouse. A general note: In patch-clamp work, channel activity is measured electrically.
The subject of assay [6] is induced human neurons. The assay can be described thus: Whole-cell patch clamp of induced human neurons. The class given is cell-based.
The test system of assay [7] is tdTomato-positive induced nociceptors. The assay can be described thus: Calcium imaging of tdTomato-positive induced nociceptors with Trp channel agonists. The class given is cell-based, mouse.
Assay [8] relates to tdTomato-positive primary DRG neurons. Put plainly: Calcium imaging of tdTomato-positive primary DRG neurons with Trp channel agonists. The class given is cell-based, mouse.
Assay [9] relates to KCl-responding neurons derived from the BAM factors. The assay can be described thus: Calcium imaging of neurons derived from the BAM factors alone. It counts as cell-based, mouse.
The subject of assay [10] is induced neurons. The assay can be described thus: Extracellular multi-electrode array recording of induced neurons after agonist application. It counts as cell-based, mouse.
Assay [11] has as its system induced nociceptors. It counts as cell-based, mouse. This is another data set of the same source.
The target of assay [12] is T2, P2X3 subtype of ionotropic purinergic receptors (Mus musculus, UniProt Q3UR32).
T2 construct: Whole-cell patch recordings were performed on induced tdTomato-positive nociceptors, derived from TrpV1-Cre^+/−::tdTomato^+/− MEFs; endogenous in cells; host or cells: tdTomato-positive induced nociceptors reprogrammed from TrpV1-Cre+/-::tdTomato+/- mouse embryonic fibroblasts
T2 sequence (Q3UR32 1-397): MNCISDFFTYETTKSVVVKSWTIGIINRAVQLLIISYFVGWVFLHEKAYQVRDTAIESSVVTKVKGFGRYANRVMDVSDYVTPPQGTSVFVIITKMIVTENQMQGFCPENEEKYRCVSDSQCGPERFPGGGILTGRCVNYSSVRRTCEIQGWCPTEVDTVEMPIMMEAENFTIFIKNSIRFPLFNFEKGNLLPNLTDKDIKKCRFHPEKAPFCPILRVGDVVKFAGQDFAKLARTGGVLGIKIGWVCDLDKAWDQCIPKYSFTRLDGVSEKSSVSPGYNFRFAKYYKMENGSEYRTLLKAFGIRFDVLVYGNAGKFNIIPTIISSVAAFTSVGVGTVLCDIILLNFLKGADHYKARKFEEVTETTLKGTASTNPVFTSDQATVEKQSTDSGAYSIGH
The assay can be described thus: Whole-cell patch clamp of P2X3 currents in induced nociceptors. It counts as cell-based. The conditions noted are these: 30 μM.

The mark [13] stands for this setting: induced nociceptors, capsaicin 1 μM, mustard oil 100 μM, menthol 250 μM, n=227 tdTomato-positive cells that responded to KCl.
[14] abbreviates: adult TrpV1::tdTomato mice, same procedure, n=249 tdTomato-positive cells that responded to KCl.

Values joined by “and” are separate entries in the source; they are usually repeats but may differ in a detail not shown here. Identical values can stand only once. Like-named read-outs stand apart in the source and are kept apart here.

T1 sequence (Q704Y3 whole entry): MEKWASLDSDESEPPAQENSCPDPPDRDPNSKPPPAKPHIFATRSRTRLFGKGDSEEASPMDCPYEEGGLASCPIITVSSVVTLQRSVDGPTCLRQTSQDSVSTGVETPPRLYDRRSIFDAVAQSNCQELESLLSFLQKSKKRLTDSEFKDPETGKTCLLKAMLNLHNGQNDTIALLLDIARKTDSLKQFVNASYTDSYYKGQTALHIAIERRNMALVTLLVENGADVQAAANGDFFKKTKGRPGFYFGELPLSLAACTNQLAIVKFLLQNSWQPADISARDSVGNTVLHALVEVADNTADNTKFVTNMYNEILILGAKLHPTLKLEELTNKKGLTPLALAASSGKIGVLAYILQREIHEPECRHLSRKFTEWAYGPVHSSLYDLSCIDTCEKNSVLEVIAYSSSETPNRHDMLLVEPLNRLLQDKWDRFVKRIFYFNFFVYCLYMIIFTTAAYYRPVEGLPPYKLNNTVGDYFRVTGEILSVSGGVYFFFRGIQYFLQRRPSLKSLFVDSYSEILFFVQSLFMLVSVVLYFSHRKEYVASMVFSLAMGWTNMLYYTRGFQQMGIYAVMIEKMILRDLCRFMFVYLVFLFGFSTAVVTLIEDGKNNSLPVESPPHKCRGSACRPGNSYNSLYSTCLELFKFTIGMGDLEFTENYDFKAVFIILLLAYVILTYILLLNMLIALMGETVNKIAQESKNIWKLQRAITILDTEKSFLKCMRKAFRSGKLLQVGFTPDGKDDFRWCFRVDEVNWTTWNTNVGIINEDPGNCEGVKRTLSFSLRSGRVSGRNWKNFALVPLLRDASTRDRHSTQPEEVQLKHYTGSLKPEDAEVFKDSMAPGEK

Take `[Cl-].[K+]` [KCl, potassium chloride]: the “CGRP released, mean (s.e.m.)” value in [1] is on record as 390.4 (52.5) pg ml-1; in assay [2], 10.3 (2.6) pg ml-1. The “CGRP release from primary DRGs” value in assay [3] was “dose-dependent increase in CGRP release”.
Regarding `CCCCC[C@H](O)/C=C/[C@H]1[C@H](O)CC(=O)[C@@H]1C/C=C\CCCC(=O)O` [PGE2, Prostaglandin E2], the “mean change in fluorescence absorption ratio, PGE2-sensitized capsaicin response” value in assay [4] (second 300 nM capsaicin application after 1 μM PGE2 for two minutes, n=41) was 0.18±6.0*10^−3.
`NC1=N[C@H](O)[C@H]2[C@H]3O[C@]4(O)O[C@@H]([C@@H](O)[C@@]2(N1)[C@@H]4O)[C@]3(O)CO` [TTX, tetrodotoxin]: in [5], the “induced neurons firing single TTX-resistant action potentials overshooting 0 mV (neurons/total)” value was 8/16 and 7/12; the “induced neurons with TTX-resistant sodium currents greater than 50 pA (neurons/total)” value is 14/15. Moreover, the “neurons with TTX-resistant sodium currents (neurons/total)” value in assay [6] is given as 10/10.
For `COc1cc(CNC(=O)CCCC/C=C/C(C)C)ccc1O` [capsaicin], the “tdTomato-positive cells that responded to agonist” value in assay [7] (setting [13]) came to 39%. The “tdTomato-positive primary DRG neurons that responded to agonist” value in assay [8] (setting [14]) is 36%. In addition, the “KCl-responding neurons that responded to capsaicin (responders/total)” value in assay [9] is 0/50. The “arrays with robust action potential firing after agonist application (arrays/total)” value in assay [10] (capsaicin 1 μM, mustard oil 100 μM) is listed as 3/3. Also, in [5] (1 μM capsaicin, voltage clamp, holding −80 mV), the “neurons with inward currents elicited by capsaicin (neurons/total)” value is given as 6/11. In addition, in assay [4] (300 nM capsaicin, before PGE2), the “mean change in fluorescence absorption ratio, initial capsaicin response” value was 0.028±3.0*10^−3.
As for `CC1CCC(C(C)C)C(O)C1` (stereo not drawn) [menthol], the “tdTomato-positive cells that responded to agonist” value in [7] (setting [13]) is reported as 3%. The “tdTomato-positive primary DRG neurons that responded to agonist” value in assay [8] (setting [14]) was determined as 2.5%.
As to `C=CCN=C=S` [mustard oil], in [7], the “tdTomato-positive cells that responded to agonist” value was 9%. The “tdTomato-positive primary DRG neurons that responded to agonist” value in assay [8] amounted to 2.5%. Moreover, the “arrays with robust action potential firing after agonist application (arrays/total)” value in assay [10] is 3/3.
With `O=C1[O][Pt]2([NH][C@@H]3CCCC[C@H]3[NH]2)[O]C1=O` [oxaliplatin], the “sensitization of capsaicin response (spikes)” value in [11] is “marked sensitization”.
Take `Nc1ncnc2c1ncn2[C@@H]1O[C@H](COP(=O)(O)CP(=O)(O)OP(=O)(O)O)[C@@H](O)[C@H]1O` [α, β-methylene-ATP]: the “neurons with rapidly-adapting inward currents elicited by agonist (neurons/total)” value in assay [12] is 8/16.
As for ZD7288, the “neurons with ZD7288-sensitive HCN currents (neurons/total)” value in assay [5] is 2/2.
